According to ChEMBL document CHEMBL1131891, “Antiplatelet actions of aporphinoids from Formosan plants” (Bioorg Med Chem Lett, 1999):

Legend:
Format in all cases: functional
Oryctolagus cuniculus [1] = organism: Oryctolagus cuniculus; test: Effect on platelet aggregation induced by arachidonic acid(AA) in washed rabbit platelet
Oryctolagus cuniculus [2] = organism: Oryctolagus cuniculus; test: Inhibitory activity against platelet aggregation induced by arachidonic acid(AA) in washed rabbit platelet
Oryctolagus cuniculus [3] = organism: Oryctolagus cuniculus; test: Effect on platelet aggregation induced by adenosine 5'-diphosphate (ADP) in washed rabbit platelet
Oryctolagus cuniculus [4] = organism: Oryctolagus cuniculus; test: Effect on platelet aggregation induced by platelet activating factor(PAF) in washed rabbit platelet
Oryctolagus cuniculus [5] = organism: Oryctolagus cuniculus; test: Inhibitory activity against platelet aggregation induced by platelet activating factor(PAF) in washed rabbit platelet
Oryctolagus cuniculus [6] = organism: Oryctolagus cuniculus; test: Effect on platelet aggregation induced by collagen in washed rabbit platelet
Oryctolagus cuniculus [7] = organism: Oryctolagus cuniculus; test: Inhibitory activity against platelet aggregation induced by collagen in washed rabbit platelet

Compound | Aggregation (Oryctolagus cuniculus [1]) | IC50 (Oryctolagus cuniculus [2]; read-out: IC50) | Aggregation (Oryctolagus cuniculus [3]) | Aggregation (Oryctolagus cuniculus [4]) | IC50 (Oryctolagus cuniculus [5]; read-out: IC50) | Aggregation (Oryctolagus cuniculus [6]) | IC50 (Oryctolagus cuniculus [2]) | IC50 (Oryctolagus cuniculus [5]) | IC50 (Oryctolagus cuniculus [7]) | IC50 (Oryctolagus cuniculus [7]; read-out: IC50)
COc1cc2c(cc1OC)C(O)C1c3c(c(OC)c(OC)c(OC)c3-2)CCN1C (configuration not stated) | 0% | 70.4 µM | 34.5% | 0% | 11.8 µM | 0% | – | – | – | –
COc1cc2c3c(c1O)-c1ccccc1CC3N(C)CC2 (configuration not stated) | 0% | 171 µM | 86.3% | 51.7% | – | 0% | – | – | – | –
COc1cc2c(cc1OC)C(O)C1c3c(cc(OC)c(OC)c3-2)CCN1C (configuration not stated) | 21.8% | – | 78.3% | 0% | 52.6 µM | 12.7% | – | – | – | –
COc1cc2c(cc1O)C[C@H]1c3c(cc(OC)c(OC)c3-2)CC[N+]1(C)C.[I-] | 88.1% | – | 87.6% | 82.7% | – | 81.3% | – | – | – | –
COc1ccc2c(c1OC)-c1c(OC)c(O)cc3c1[C@H](C2)N(C)CC3 | 86.5% | – | 89.4% | 78.6% | – | 83.5% | – | – | – | –
COc1cc2c(cc1OC)-c1c3c(cc4c1[C@H](C2)N(OC)CC4)OCO3 | 80.9% | – | 86.8% | 92.2% | – | 87.3% | – | – | – | –
CC1=NN(c2ccc([N+](=O)[O-])cc2)C(=O)C1[N+](=O)[O-].COc1cc2c(cc1O)C[C@@H]1NCCc3cc(O)c(OC)c-2c31 | 0% | 149 µM | 92.1% | 79.3% | – | 4.6% | – | – | – | –
COc1cc2c3c(c1OC)-c1ccccc1C[C@@H]3NCC2 | 0% | 211 µM | 77.1% | 30.6% | – | 0% | – | – | – | –
COc1c(O)ccc2c1-c1c(OC)c(O)cc3c1[C@H](C2)[N+](C)(C)CC3.[I-] | 83.7% | – | 90.7% | 85.5% | – | 89.8% | – | – | – | –
COc1ccc2c(c1OC)-c1c3c(cc4c1[C@H](C2)[N+](C)(C)CC4)OCO3.[I-] | 89% | – | 88.6% | 83.9% | – | 77.6% | – | – | – | –
Br.COc1c(O)ccc2c1-c1c3c(cc4c1[C@H](C2)NCC4)OCO3 | 60% | – | 91.8% | 91.6% | – | 0% | – | – | – | –
COc1c(O)ccc2c1-c1c(OC)c(O)cc3c1[C@H](C2)NCC3.Cl | 0% | 168 µM | 10.5% | 4% | – | 0% | – | – | – | –
CC(=O)Oc1ccccc1C(=O)O [ASPIRIN] | 0% | – | 77.9% | 90.4% | – | 87.4% | 164 µM | > 1000 µM | > 1000 µM | –
COc1ccc2c(c1OC)-c1c(OC)c(OC)cc3c1[C@H](C2)[N+](C)(C)CC3.[I-] [ISOCORYDINE METHIODIDE] | 71% | – | 90.2% | 85.6% | – | 87.9% | – | – | – | –
CN1CCc2cc3c(c4c2[C@H]1Cc1ccccc1-4)OCO3.Cl [REMERINE HYDROCHLORIDE] | 0% | 195 µM | 67.2% | 27.8% | – | 0% | – | – | – | 88.2 µM
